# Source: patent publication EP1169036B1, “ANTI-VIRAL USES OF LEFLUNOMIDE PRODUCTS” (priority 1998, dated 1999)
# Read-outs that look alike come from different tables or passages of the source.
# Key:
# [1] = system: rat CMV (RCMV RA67, Maastricht strain); assay: Viral load in nude rats inoculated with rat CMV, plaque assay of tissue homogenates; assay type: in vivo, immunodeficient nude rats; settings: leflunomide 15 mg/kg/day for 14 days, 14 days post-inoculation
# hepatitis C = assay: Clinical treatment of a patient with chronic hepatitis C, viral load by quantitative PCR; assay type: in vivo, human
# Protocol: The patient is a person who received a liver transplant in January 1990 for hepatitis C. Over the following nine years they developed indolent hepatitis C with mildly elevated liver enzymes. Because of slowly progressive kidney impairment, presumably related to a combination of chronic hepatitis C and long term cyclosporine A treatment, they were started on leflunomide treatment. […] After an initial leflunomide loading dose of 300 mg daily for two days, a maintenance dose of 50 mg daily was started.
# As the new treatment regimen was implemented, their kidney function improved; their serum creatinine fell from 3.6 mg/dl to 2.2 mg/dl and their BUN fell from 94 mg/dl to 55 mg/dl. Just before leflunomide was begun their hepatitis C viral load in peripheral blood was 3,120,000 copies, measured by quantitative PCR (Quest Diagnostics). After six weeks of therapy with leflunomide, their hepatitis C viral load had fallen to 1,480,000 copies, measured by the same PCR methodology.
# uninfected cells [2] = assay: Cytotoxicity, microscopic reading of uninfected cells in the CPE inhibition test (rhinovirus host cells, not named); assay type: cell-based
# Protocol: (§1) Cytotoxicity of each test compound is also evaluated as follows. In the initial CPE inhibition tests, two wells of uninfected cells treated with each concentration of test compound are run in parallel with the infected, treated wells. When the CPE is determined microscopically, the toxicity control cells are also examined microscopically for any changes in cell appearance compared to normal uninfected, untreated control cells. Changes, which may manifest as enlargement, granularity, ragged edges, filmy appearance, rounding, detachment from the surface of the well, or other changes, are given a designation of T (100% toxic), PVH (partially toxic-very heavy-80%), PH (partially toxic-heavy-60%), P (partially toxic-40%), PS (partially toxic-slight-20%) or 0 (no toxicity-0%) in accordance with the degree of cytotoxicity observed. […] A neutral red IC50 is also determined based on uptake of neutral red dye by the toxicity control cells.
# [3] = system: Respiratory Syncytial Virus A; assay: microbe, parasite or virus in culture; assay type: cell-based; settings: human respiratory syncytial virus, MA104; read-out: CPE Inhibition test EC50
# Measles Virus [4] = assay: microbe, parasite or virus in culture; assay type: cell-based; settings: Measles morbillivirus, CV-1; read-out: CPE Inhibition test EC50
# [5] = system: African green monkey kidney (CV-1) cells; assay: cells; assay type: cell-based; settings: Chlorocebus sabaeus, read-out: Neutral Red Uptake test IC50
# [6] = system: Parainfluenza Type 3 Virus; assay: organism not typed; assay type: cell-based; settings: MA104; read-out: Neutral Red Uptake test EC50
# Adenovirus Type 1 [7] = assay: microbe, parasite or virus in culture; assay type: cell-based; settings: Human mastadenovirus C, A549; read-out: Neutral Red Uptake test EC50
# [8] = system: African green monkey kidney (MA-104) cells; assay: cells; assay type: cell-based; settings: Chlorocebus sabaeus, MA104, cytotoxic concentration, positive control drug = ribavirin, read-out: CPE Inhibition test IC50
# [9] = system: African green monkey kidney (MA-104) cells; assay: Cytotoxicity, neutral red uptake by toxicity control cells; assay type: cell-based; settings: Chlorocebus sabaeus, read-out: Neutral Red Uptake test IC50
# [10] = system: Respiratory Syncytial Virus A; assay: microbe, parasite or virus in culture; assay type: cell-based; settings: human respiratory syncytial virus, MA104; read-out: Neutral Red Uptake test EC50
# [11] = system: human lung carcinoma (A549) cells; assay: cells; assay type: cell-based; settings: read-out: CPE Inhibition test IC50
# Adenovirus Type 1 [12] = assay: microbe, parasite or virus in culture; assay type: cell-based; settings: Human mastadenovirus C, A549; read-out: CPE Inhibition test EC50
# Measles Virus [13] = assay: microbe, parasite or virus in culture; assay type: cell-based; settings: Measles morbillivirus, CV-1; read-out: Neutral Red Uptake test EC50
# [14] = system: African green monkey kidney (CV-1) cells; assay: cells; assay type: cell-based; settings: Chlorocebus sabaeus, read-out: CPE Inhibition test IC50
# [15] = system: Madin Darby canine kidney (MDCK) cells; assay: cells; assay type: cell-based; settings: Canis lupus familiaris, cytotoxic concentration, positive control drug = ribavirin, read-out: Neutral Red Uptake test IC50
# uninfected cells [16] = assay: Cytotoxicity, neutral red uptake by toxicity control cells (rhinovirus host cells, not named); assay type: cell-based; settings: read-out: Neutral Red Uptake test IC50
# Protocol: as §1
# [17] = system: Madin Darby canine kidney (MDCK) cells; assay: cells; assay type: cell-based; settings: Canis lupus familiaris, cytotoxic concentration, positive control drug = ribavirin, read-out: CPE Inhibition test IC50
# [18] = system: Parainfluenza Type 3 Virus; assay: organism not typed; assay type: cell-based; settings: MA104; read-out: CPE Inhibition test EC50
# Rhinovirus Type 5 [19] = assay: microbe, parasite or virus in culture; assay type: cell-based; settings: Enterovirus; read-out: CPE Inhibition test EC50
# Rhinovirus Type 5 [20] = assay: Neutral red uptake test; assay type: cell-based; settings: Enterovirus, read-out: Neutral Red Uptake test EC50
# Excerpt: Environment. Microbiol, 31:35-38, 1976).
# CMV DNA polymerase = molecular target: T1, CMV DNA polymerase (Human cytomegalovirus, UniProt P08546); assay type: biochemical; settings: extracts of VHL/E-infected HUVEC or P8-infected HFF; PFA result at 1 mM
# T1 construct: Crude protein extracts prepared from CMV-infected HUVEC or HFF; endogenous in cells; host or cells: HUVEC infected with CMV VHL/E or BUR/E, and HFF infected with CMV P8; Cells were sonicated and the clarified crude lysate was used
# CMV strain VHL/E = assay: Immunohistochemical staining of CMV proteins in infected HUVEC; assay type: cell-based
# Protocol: Experiments were conducted to determine at which point in the viral replication cycle leflunomide exerts its inhibitory effects. Immediately upon penetration of the host cell, CMV lower matrix protein pp65, a component of the viral tegument, translocates to the cell nucleus. Although the nuclear function of pp65 remains to be resolved, another tegument protein (pp71) that migrates in a similar manner acts in concert with cellular proteins to promote rapid transcription of immediate early (IE) viral genes. IE gene products are primarily regulatory, activating early gene transcription, whose products are essential for viral DNA replication. Activation of late genes, which code primarily for structural protein components of the virion, occurs late in the replicative cycle and is dependent upon viral DNA replication.
# To localize potential A771726-induced lesions in this temporal series of events, a cross section of CMV proteins in infected cells was first visualized by immunohistochemical staining as follows. CMV strain VHL/E-inoculated HUVEC monolayers incubated in the presence or absence of 200 µM A771726 or 1 mM phosphonoformate (PFA) (as a positive control for late antigen inhibition) were fixed at various intervals and stained with mAb specific for pp65, 72 kD IE1, or late structural glycoprotein B (gB). […]
# [21] = in vivo; cited from earlier work
# CMV DNA = assay type: cell-based; settings: CMV-infected HFF (100 µM A771726) , identical in HUVEC (200 µM); 1 mM PFA; 48 hours
# [22] = system: CMV strain VHL/E or strain BUR/E; assay type: cell-based; settings: HUVEC, A771726 200 µM, CsA 100 ng/ml, FK 506 1 ng/ml
# [23] = run with Respiratory Syncytial Virus A
# [24] = MA104, cytotoxic concentration, run with Parainfluenza Type 3 Virus, positive control drug = ribavirin
# T1 sequence (P16790 whole entry): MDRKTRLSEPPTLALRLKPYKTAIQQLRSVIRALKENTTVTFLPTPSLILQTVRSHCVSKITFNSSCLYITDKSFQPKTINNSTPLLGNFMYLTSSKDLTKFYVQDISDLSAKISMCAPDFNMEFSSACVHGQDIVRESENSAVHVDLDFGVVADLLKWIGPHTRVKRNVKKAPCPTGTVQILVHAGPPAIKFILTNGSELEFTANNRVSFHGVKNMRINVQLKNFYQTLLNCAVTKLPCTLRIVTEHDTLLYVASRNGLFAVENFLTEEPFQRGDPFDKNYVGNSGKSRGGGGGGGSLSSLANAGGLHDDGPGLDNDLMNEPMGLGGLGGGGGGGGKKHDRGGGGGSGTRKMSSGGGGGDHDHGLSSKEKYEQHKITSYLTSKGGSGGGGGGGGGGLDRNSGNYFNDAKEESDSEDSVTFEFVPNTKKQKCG
# T1 sequence (P08546 whole entry): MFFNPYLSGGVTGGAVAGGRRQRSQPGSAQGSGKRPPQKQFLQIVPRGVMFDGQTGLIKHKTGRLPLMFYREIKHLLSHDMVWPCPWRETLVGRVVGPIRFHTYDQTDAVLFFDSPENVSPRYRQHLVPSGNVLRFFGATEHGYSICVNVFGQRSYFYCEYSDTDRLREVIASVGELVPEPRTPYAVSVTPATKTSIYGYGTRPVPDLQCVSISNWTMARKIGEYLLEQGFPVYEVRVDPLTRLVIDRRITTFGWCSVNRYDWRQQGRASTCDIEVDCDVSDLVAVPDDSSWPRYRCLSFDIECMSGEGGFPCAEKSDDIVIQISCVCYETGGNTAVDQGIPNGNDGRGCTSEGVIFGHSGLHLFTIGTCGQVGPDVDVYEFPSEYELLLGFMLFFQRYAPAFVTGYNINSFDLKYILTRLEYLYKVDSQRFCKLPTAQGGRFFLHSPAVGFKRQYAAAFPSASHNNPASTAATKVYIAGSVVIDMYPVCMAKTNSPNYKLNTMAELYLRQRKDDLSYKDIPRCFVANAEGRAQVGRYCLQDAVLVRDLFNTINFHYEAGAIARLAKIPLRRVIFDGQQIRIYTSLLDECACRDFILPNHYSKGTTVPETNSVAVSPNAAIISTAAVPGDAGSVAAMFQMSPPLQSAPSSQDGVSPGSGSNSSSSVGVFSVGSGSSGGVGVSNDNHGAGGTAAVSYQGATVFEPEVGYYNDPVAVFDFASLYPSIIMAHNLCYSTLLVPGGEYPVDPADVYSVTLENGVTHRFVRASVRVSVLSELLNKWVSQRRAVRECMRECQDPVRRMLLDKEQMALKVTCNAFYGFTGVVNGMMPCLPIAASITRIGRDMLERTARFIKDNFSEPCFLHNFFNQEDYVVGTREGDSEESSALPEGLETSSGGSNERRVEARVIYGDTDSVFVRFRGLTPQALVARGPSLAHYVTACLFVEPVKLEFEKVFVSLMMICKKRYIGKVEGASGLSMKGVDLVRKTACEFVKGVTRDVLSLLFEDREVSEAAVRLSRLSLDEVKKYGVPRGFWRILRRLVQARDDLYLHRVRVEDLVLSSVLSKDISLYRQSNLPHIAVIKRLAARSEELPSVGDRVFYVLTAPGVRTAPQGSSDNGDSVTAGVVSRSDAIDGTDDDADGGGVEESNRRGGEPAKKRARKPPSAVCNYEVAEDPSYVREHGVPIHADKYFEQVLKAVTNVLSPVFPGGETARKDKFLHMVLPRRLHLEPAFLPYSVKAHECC
SMILES,EC50 [3] [µM],EC50 (Measles Virus [4]) [µM],IC50 [5] [µM],EC50 [6] [µM],"IC50 [8, 23] [µM]","IC50 [9, 24] [µM]",IC50 ([9]; MA104) [µM],EC50 [10] [µM],EC50 (Measles Virus [13]) [µM],IC50 [14] [µM],IC50 ([15]; run with Influenza A (H1N1)) [µM],IC50 ([15]; run with Influenza A (H3N2)) [µM],IC50 ([15]; run with Influenza B) [µM],IC50 ([17]; run with Influenza A (H1N1)) [µM],IC50 ([17]; run with Influenza A (H3N2)) [µM],IC50 ([17]; run with Influenza B) [µM],EC50 [18] [µM],further results
"Cc1oncc1C(=O)Nc1ccc(C(F)(F)F)cc1 [leflunomide, N-(4-trifluoromethylphenyl)-5-methylisoxazol-4-carboxamide]",–,–,–,–,–,–,–,–,–,–,–,–,–,–,–,–,–,"viral load in salivary gland, lung and spleen [1]: significantly reduced viral load; hepatitis C viral load in peripheral blood (hepatitis C; after six weeks of leflunomide (300 mg daily two days, then 50 mg daily), 3,120,000 copies before): 1,480,000 copies; drop in hepatitis C viral load (hepatitis C; one patient, six weeks of leflunomide therapy): 50%"
"Cc1nocc1C(=O)Nc1ccc(C(F)(F)F)cc1 [Compound 99-126, N-(4-trifluoromethylphenyl)-3-methylisoxazol-4-carboxamide]",> 100,10,25,20,40,20,30,> 100,14,60,48,30,46,63,72,72,> 100,IC50 (uninfected cells [2]): 100 µM; EC50 (Adenovirus Type 1 [7]): > 100 µM; IC50 ([8]; run with Parainfluenza Type 3 Virus): 11 µM; IC50 [11]: 60 µM; EC50 (Adenovirus Type 1 [12]): > 100 µM; IC50 (uninfected cells [16]): > 100 µM; EC50 (Rhinovirus Type 5 [19]): 100 µM; EC50 (Rhinovirus Type 5 [20]): > 100 µM
"O=C([O-])P(=O)(O)O.[Na+] [PFA, sodium phosphonoformate]",–,–,–,–,–,–,–,–,–,–,–,–,–,–,–,–,–,"viral DNA polymerase activity (CMV DNA polymerase): complete inhibition; expression of viral proteins pp65, IE1, gB (CMV strain VHL/E; 200 µM A771726 or 1 mM PFA, 24, 48, 96 hours pi): unable to express gB; pp65 and IE1 expression (CMV strain VHL/E; 1 mM PFA): unimpeded; toxicities (renal dysfunction, hypomagnesemia, hypokalemia, hypocalcemia, seizures, fever, rash), each, share of recipients [21]: more than 5%; quantities of viral DNA synthesized (CMV DNA): no detectable CMV DNA"
"C=CC[C@@H]1/C=C(\C)C[C@H](C)C[C@H](OC)[C@H]2O[C@@](O)(C(=O)C(=O)N3CCCC[C@H]3C(=O)O[C@H](/C(C)=C/[C@@H]3CC[C@@H](O)[C@H](OC)C3)[C@H](C)[C@@H](O)CC1=O)[C@H](C)C[C@@H]2OC [FK 506, tacrolimus]",–,–,–,–,–,–,–,–,–,–,–,–,–,–,–,–,–,production of infectious virus (CMV production) [22]: no significant inhibition
"Cc1oncc1C(=O)Nc1cccc(C(F)(F)F)c1 [Compound 99-127, N-(3-trifluoromethylphenyl)-5-methylisoxazol-4-carboxamide]",> 100,> 100,30,> 100,30,15,20,> 100,> 100,60,66,46,60,> 200,63,> 200,> 100,–
Nc1ccn(C[C@@H](CO)OCP(=O)(O)O)c(=O)n1 [Cidofovir],–,–,–,–,–,–,–,–,–,–,–,–,–,–,–,–,–,"Neutropenia, share of recipients [21]: approximately 10%"
